Measured values published in US20260042854A1, “ANTI-GLP-1R ANTIBODIES AND USES THEREOF” (SCIWIND BIOSCIENCES USA CO., LTD, priority 2022, published 2026).

Legend:
[1] = test system: C57BL/6 mice; assay: IPGTT in C57BL/6 mice (exogenous GLP-1 added); format: in vivo, mouse; details: GLP-1 25.0 nmol/kg i.p. with glucose
Experimental: 7-9-week-old male C57BL/6 mice (22-26 g) were assigned into 5 groups, with 5 mice in each group, and the mice in each group were treated according to the scheme shown in Table 6. The antibody treatment groups were given a single subcutaneous injection, and were fasted for 18 hours after the administration. […] The blood glucose levels of the mice before (0 min) and 15 min, 30 min. 60 min, 90 min, 120 min and 180 min after the administration of glucose were measured with blood glucose meter. The AUCs of the blood glucose-time curves of each mouse from 0 to 180 min were calculated with GraphPad Prism 9. The blood glucose levels and the AUCs were shown in Mean±SEM and the differences among groups were compared. Statistical differences were analyzed with One-way ANOVA. […] The significance markers were not shown in the line chart since they would overlap and be difficult to distinguish.

[2] = test system: humanized GLP-1R mice; assay: IPGTT in humanized GLP-1R mice (exogenous GLP-1 added); format: in vivo, mouse; details: GLP-1 25 nmol/kg i.p. with glucose
Experimental: 10-week-old female humanized GLP-1R mice (25-28 g, Shanghai Model Organisms Center Inc.) were assigned into 5 groups, with 5 mice in each group, and each group was treated according to the scheme in Table 6. The antibody treatment groups were subcutaneously injected with antibody, while the other groups were subcutaneously injected with vehicle (PBS) once a week for 2 consecutive weeks. IPGTTs were performed one day after the administration. The first subcutaneous administration of the antibody was on Day 0, and the second subcutaneous administration was on Day 7.
The blood glucose levels of the mice before (0 min) and 15 min, 30 min, 60 min, 90 min, 120 min and 180 min after the administration of glucose were measured with blood glucose meter. The AUCs of the blood glucose-time curves of each mouse from 0 to 180 min were calculated with GraphPad Prism 9. […] Statistical differences were analyzed with One-way ANOVA. […]
10-week-old female humanized GLP-1R mice (25-28 g) were assigned into 5 groups, with 5 mice in each group, and each group was treated according to the scheme in Table 10. […] The blood glucose levels of the mice before (0 min) and 15 min, 30 min, 60 min, 90 min, 120 min and 180 min after the administration of glucose were measured with blood glucose meter. The AUCs of the blood glucose-time curves of each mouse were calculated with GraphPad Prism 9. […]

[3] = molecular target: T1, Mouse GLP-1R (Mus musculus, UniProt O35659); assay: cAMP HTRF antagonism assay in HEK293 transfected with mouse GLP-1R; format: cell-based
T1 construct: expressed in transfected cells; host or cells: HEK293 (ATCC, CRL-1573)
T1 sequence (O35659 22-463): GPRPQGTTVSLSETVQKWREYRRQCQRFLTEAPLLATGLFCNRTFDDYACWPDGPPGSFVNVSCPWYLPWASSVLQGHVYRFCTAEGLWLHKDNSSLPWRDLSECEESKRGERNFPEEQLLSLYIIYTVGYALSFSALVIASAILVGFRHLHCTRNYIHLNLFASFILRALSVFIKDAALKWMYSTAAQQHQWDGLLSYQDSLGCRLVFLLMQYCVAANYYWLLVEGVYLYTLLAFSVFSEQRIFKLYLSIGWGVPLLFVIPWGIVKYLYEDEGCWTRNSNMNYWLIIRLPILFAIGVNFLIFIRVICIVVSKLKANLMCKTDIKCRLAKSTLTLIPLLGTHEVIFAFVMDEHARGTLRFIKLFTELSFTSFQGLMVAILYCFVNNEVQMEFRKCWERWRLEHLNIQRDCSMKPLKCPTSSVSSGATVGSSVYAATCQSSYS
Experimental: HEK293 cells (ATCC, cat no. CRL-1573) were transfected with GLP-1R_pcDNA3.1/G418 (+) plasmids which can transcribe the mRNA of human (NM_002062.5), monkey (JN033215.1) and mouse (NM_021332.2) GLP-1R polypeptide. […] The plate was further incubated at 37° C. for 120 minutes. Finally, the CAMP level was measured with cAMP HTRF kit (Cisbio, 62AM4PEB). […] The data were analyzed by four-parameter curve fitting with GraphPad Prism 9, and IC50 was calculated.

| Substance | effect of GLP-1 on blood glucose levels (in words) [1] | effect of GLP-1 on blood glucose levels (in words) [2] | antagonism of activation of mouse GLP-1R by GLP-1 (in words) [3] |
| --- | --- | --- | --- |
| GLP-1: native GLP-1 (7-37aa, R&D Systems, cat no. 5374/1), agonist used to activate GLP-1R (HAEGTFTSDVSSYLEGQAAKEFIAWLVKGRG; Glucagon-like peptide 1(7-37); UniProt P01275 98-128, looked up) [reference compound] | could lower blood glucose levels | can effectively lower the blood glucose levels |  |
| exendin 9-39 [Avexitide, reference compound] |  |  | does antagonize the activation of mouse GLP-1R by GLP-1 |
